Test results reported in the NIST ThermoML archive (doi:10.1021/je900124n).
Values joined by “and” are separate entries in the source; they are usually repeats but may differ in a detail not shown here. Equal values may be shown once.

Conditions: Fluid (supercritical or subcritical phases), Buoyancy - hydrostatic balance with magnetic suspension - two sinkers

CCC [propane]
Conditions	mass density
370.82 K, 4316.6 kPa	196.656 kg/m3 and 196.671 kg/m3
370.82 K, 4316.7 kPa	196.709 kg/m3 and 196.642 kg/m3
370.82 K, 4316.8 kPa	196.799 kg/m3
370.83 K, 4238.2 kPa	146.891 kg/m3 and 146.895 kg/m3 and 146.889 kg/m3
370.83 K, 4238.3 kPa	146.899 kg/m3 and 146.89 kg/m3 and 146.892 kg/m3
370.83 K, 4316.8 kPa	196.721 kg/m3 and 196.767 kg/m3 and 196.684 kg/m3
370.83 K, 4323.4 kPa	219.805 kg/m3 [middle of 5 runs]
370.83 K, 4323.5 kPa	219.874 kg/m3 and 219.908 kg/m3 and 219.975 kg/m3
370.83 K, 4330.9 kPa	243.656 kg/m3 [middle of 4 runs]
370.83 K, 4331 kPa	243.626 kg/m3 and 243.674 kg/m3 and 243.648 kg/m3
370.83 K, 4331.1 kPa	243.671 kg/m3
370.85 K, 4240.8 kPa	147.314 kg/m3
370.85 K, 4240.9 kPa	147.324 kg/m3
370.85 K, 4306.4 kPa	177.862 kg/m3
370.85 K, 4306.5 kPa	177.914 kg/m3 and 177.843 kg/m3
370.85 K, 4306.6 kPa	177.931 kg/m3 and 177.874 kg/m3
370.85 K, 4322.8 kPa	208.978 kg/m3 and 208.99 kg/m3
370.85 K, 4322.9 kPa	208.933 kg/m3 and 209.016 kg/m3
370.85 K, 4323 kPa	209.074 kg/m3
370.85 K, 4327.4 kPa	226.65 kg/m3
370.85 K, 4327.5 kPa	226.647 kg/m3
370.85 K, 4353.6 kPa	265.164 kg/m3
370.85 K, 4353.7 kPa	265.36 kg/m3 and 265.182 kg/m3 and 265.138 kg/m3
370.85 K, 4353.8 kPa	265.176 kg/m3 [middle of 4 runs]
370.86 K, 4327.6 kPa	226.701 kg/m3 and 226.673 kg/m3
371.82 K, 4387.3 kPa	196.837 kg/m3 and 196.769 kg/m3
371.82 K, 4416.6 kPa	243.565 kg/m3
371.83 K, 4293.5 kPa	147.926 kg/m3
371.83 K, 4293.6 kPa	147.93 kg/m3 and 147.934 kg/m3 and 147.924 kg/m3
371.83 K, 4293.7 kPa	147.947 kg/m3 and 147.93 kg/m3
371.83 K, 4387.3 kPa	196.784 kg/m3 and 196.769 kg/m3
371.83 K, 4387.4 kPa	196.809 kg/m3 [middle of 4 runs]
371.83 K, 4400.8 kPa	219.56 kg/m3
371.83 K, 4400.9 kPa	219.574 kg/m3 and 219.677 kg/m3 and 219.642 kg/m3
371.83 K, 4401 kPa	219.681 kg/m3 [middle of 4 runs]
371.83 K, 4416.6 kPa	243.624 kg/m3
371.83 K, 4416.7 kPa	243.578 kg/m3 and 243.586 kg/m3
371.83 K, 4416.8 kPa	243.575 kg/m3 and 243.616 kg/m3 and 243.58 kg/m3
371.83 K, 4416.9 kPa	243.605 kg/m3
371.85 K, 4295.8 kPa	148.252 kg/m3
371.85 K, 4295.9 kPa	148.276 kg/m3 and 148.252 kg/m3
371.85 K, 4370.3 kPa	177.981 kg/m3
371.85 K, 4370.4 kPa	178.031 kg/m3 and 177.991 kg/m3 and 178.027 kg/m3
371.85 K, 4370.5 kPa	178.012 kg/m3
371.85 K, 4397.1 kPa	208.855 kg/m3 and 208.907 kg/m3
371.85 K, 4397.2 kPa	208.865 kg/m3 and 208.929 kg/m3 and 208.907 kg/m3
371.85 K, 4407.1 kPa	226.926 kg/m3
371.85 K, 4407.2 kPa	226.521 kg/m3 and 226.511 kg/m3
371.85 K, 4450.2 kPa	265.14 kg/m3
371.85 K, 4450.3 kPa	265.143 kg/m3
371.85 K, 4450.4 kPa	265.125 kg/m3 and 265.134 kg/m3 and 265.131 kg/m3
371.86 K, 4407.3 kPa	226.504 kg/m3 and 226.483 kg/m3
372 K, 4517.4 kPa	281.197 kg/m3
372 K, 4517.6 kPa	281.196 kg/m3 and 281.206 kg/m3 and 281.197 kg/m3
372 K, 4517.7 kPa	281.2 kg/m3 [middle of 4 runs]
375 K, 3980.2 kPa	100.464 kg/m3 and 100.463 kg/m3
375 K, 3980.3 kPa	100.468 kg/m3 and 100.463 kg/m3
